Assay results taken from US20110070232A1, “Combination Therapy with an Antitumor Alkaloid” (Pharma Mar, S.A., priority 2008, published 2011).
Like-named read-outs stand apart in the source and are kept apart here.

Tests used:
Format in all cases: in vivo, mice
PLC/PRF/5 tumors = tested on: PLC/PRF/5 tumors
Method: (§1) Female athymic nude mice (Harlan Sprague Dawley, Madison, Wis.) were utilized for all experiments. Animals were housed in ventilated rack caging with food and water ad libitum. The mice were acclimated for at least 5 days prior to tumor implantation with a tumor cell suspension.
The tumor model used in these studies was PLC/PRF/5 cell line, which was obtained from the ATCC (Manassas, Va.).
PLC/PRF/5 were grown in Eagle's minimum essential medium supplemented with 10% FBS and 1% L-glutamine. Each animal was implanted SC on the right flank, using a 13G trochar and 1 mL syringe, with 5×10^6 PLC/PRF/5 cells in a 0.2 mL suspension of 50% Matrigel and 50% serum free MEM medium, without antibiotics. Bacterial cultures were performed on aliquots of the cells prepared for implantation.
(§2) Treatments were initiated on DPI 14.
(§3) Tumor size measurements were recorded twice weekly from the treatment initiation until the termination of the study.
(§4) Mean, standard deviation and standard error of the mean were determined for tumor volume for all animal groups at all assessments. Student's t test was performed on tumor volumes at each measurement day, including at the end of the study, to determine whether there were any statistically significant differences between combination treatment groups and single monotherapy treatment groups.

SK-OV-3 tumors = settings: for % Inhibition: PM00104 0.9 mg/kg/day, single agents and combination, r5-r14 = day 14,17,21,24,29,32,36,43,50,57
Excerpt: Female athymic nude mice (Harlan Sprague Dawley, Madison, Wis.) were utilized for all experiments. Animals were housed in ventilated rack caging with food and water ad libitum. The mice were acclimated for at least 5 days prior to tumor implantation with tumor fragments.
The tumor model used in these studies was SK-OV-3 cell line, which was obtained from the ATCC (Manassas, Va.).
SK-OV-3 fragments were removed from donor animals and tissue was debrided of membrane and any hemorrhagic and necrotic areas and 3-4 mm^3 fragments, from in vivo passage 2, were implanted SC on the right flank of each animal, using a 13G trochar. Bacterial culture was taken on cells used to implant the study.
as §2, §3, §4

Hs746T tumors = tested on: Hs746T tumors
Method: as §1
The tumor model used in these studies was Hs746T cell line, which was obtained from the ATCC (Manassas, Va.).
as §2, §3, §4

[1] = day 35, PM00104 0.90, sorafenib 60 mg/kg/day
[2] = day 39, PM00104 0.90, sorafenib 60 mg/kg/day
[3] = day 42, PM00104 0.90, sorafenib 60 mg/kg/day
[4] = PM00104 0.90 mg/kg/day IV and/or Bevacizumab 5 mg/kg/day IP
[5] = PM00104 0.90 IV, docetaxel 16 IP, oxaliplatin 8 IP mg/kg/day (G2, G3, G5, G7, G9), DPI 14, 21, 28

SMILES: COc1c(C)cc2c(c1O)[C@@H]1[C@@H]3Cc4c(OC(C)=O)c(C)c5c(c4[C@H](CNC(=O)/C=C/c4cccc(C(F)(F)F)c4)N3[C@@H](O)[C@H](C2)N1C)OCO5 [PM00104]
- % T/C (PLC/PRF/5 tumors; day 32, PM00104 0.90, sorafenib 60 mg/kg/day): 45.6%
- % T/C (PLC/PRF/5 tumors; day 35, PM00104 0.45, sorafenib 60 mg/kg/day): 71.7%
- % Inhibition (PLC/PRF/5 tumors; [1]): 45.1%
- % T/C (PLC/PRF/5 tumors; [1]): 54.9%
- % T/C (PLC/PRF/5 tumors; day 39, PM00104 0.45, sorafenib 60 mg/kg/day): 89.2%
- % Inhibition (PLC/PRF/5 tumors; [2]): 22.9%
- % T/C (PLC/PRF/5 tumors; [2]): 77.1%
- % T/C (PLC/PRF/5 tumors; day 42, PM00104 0.45, sorafenib 60 mg/kg/day): 85.7%
- % Inhibition (PLC/PRF/5 tumors; [3]): 29.9%
- % T/C (PLC/PRF/5 tumors; [3]): 70.1%
- % T/C on day 14 (SK-OV-3 tumors; [4]): 100.9%
- % T/C on day 17 (SK-OV-3 tumors; [4]): 87.6%
- % T/C on day 21 (SK-OV-3 tumors; [4]): 79.4%
- % T/C on day 24 (SK-OV-3 tumors; [4]): 78.8%
- % T/C on day 29 (SK-OV-3 tumors; [4]): 73.5%
- % T/C on day 32 (SK-OV-3 tumors; [4]): 73.1%
- % T/C on day 36 (SK-OV-3 tumors; [4]): 72.7%
- % T/C on day 43 (SK-OV-3 tumors; [4]): 81.5%
- % T/C on day 50 (SK-OV-3 tumors; [4]): 93.8%
- % T/C on day 57 (SK-OV-3 tumors; [4]): 100.4%
- % Inhibition (SK-OV-3 tumors; bevacizumab 5 mg/kg/day): 27.3%
- % Inhibition (SK-OV-3 tumors; bevacizumab […]): 27.3%
- % T/C on day 14 (Hs746T tumors; [5]): 99.9%
- % T/C on day 19 (Hs746T tumors; [5]): 54.9%
- % T/C on day 22 (Hs746T tumors; [5]): 40.8%
- % T/C on day 26 (Hs746T tumors; [5]): 39.5%
- % T/C on day 29 (Hs746T tumors; [5]): 30.4%
- % T/C on day 32 (Hs746T tumors; [5]): 47.6%
- % T/C on day 39 (Hs746T tumors; [5]): 80.3%
- % Inhibition (Hs746T tumors; day 14, PM00104 0.9 and docetaxel 8 mg/kg/day): 0.1%
- % Inhibition (Hs746T tumors; day 14, PM00104 0.9 and docetaxel 16 mg/kg/day): 0.1%
- % Inhibition (Hs746T tumors; day 14, PM00104 0.9 and oxaliplatin 4 mg/kg/day): 0.1%
- % Inhibition (Hs746T tumors; day 14, PM00104 0.9 and oxaliplatin 8 mg/kg/day): 0.1%
- % Inhibition (Hs746T tumors; day 19, PM00104 0.9 and docetaxel 8 mg/kg/day): 45.1%
- % Inhibition (Hs746T tumors; day 19, PM00104 0.9 and docetaxel 16 mg/kg/day): 45.1%
- % Inhibition (Hs746T tumors; day 19, PM00104 0.9 and oxaliplatin 4 mg/kg/day): 45.1%
- % Inhibition (Hs746T tumors; day 19, PM00104 0.9 and oxaliplatin 8 mg/kg/day): 45.1%
- % Inhibition (Hs746T tumors; day 22, PM00104 0.9 and docetaxel 8 mg/kg/day): 59.2%
- % Inhibition (Hs746T tumors; day 22, PM00104 0.9 and docetaxel 16 mg/kg/day): 59.2%
- % Inhibition (Hs746T tumors; day 22, PM00104 0.9 and oxaliplatin 4 mg/kg/day): 59.2%
- % Inhibition (Hs746T tumors; day 22, PM00104 0.9 and oxaliplatin 8 mg/kg/day): 59.2%
- % Inhibition (Hs746T tumors; day 26, PM00104 0.9 and docetaxel 8 mg/kg/day): 60.5%
- % Inhibition (Hs746T tumors; day 26, PM00104 0.9 and docetaxel 16 mg/kg/day): 60.5%
- % Inhibition (Hs746T tumors; day 26, PM00104 0.9 and oxaliplatin 4 mg/kg/day): 60.5%
- % Inhibition (Hs746T tumors; day 26, PM00104 0.9 and oxaliplatin 8 mg/kg/day): 60.5%
- % Inhibition (Hs746T tumors; day 29, PM00104 0.9 and docetaxel 8 mg/kg/day): 69.6%
- % Inhibition (Hs746T tumors; day 29, PM00104 0.9 and docetaxel 16 mg/kg/day): 69.6%
- % Inhibition (Hs746T tumors; day 29, PM00104 0.9 and oxaliplatin 4 mg/kg/day): 69.6%
- % Inhibition (Hs746T tumors; day 29, PM00104 0.9 and oxaliplatin 8 mg/kg/day): 69.6%
- % Inhibition (Hs746T tumors; day 32, PM00104 0.9 and docetaxel 8 mg/kg/day): 52.4%
- % Inhibition (Hs746T tumors; day 32, PM00104 0.9 and docetaxel 16 mg/kg/day): 52.4%
- % Inhibition (Hs746T tumors; day 32, PM00104 0.9 and oxaliplatin 4 mg/kg/day): 52.4%
- % Inhibition (Hs746T tumors; day 32, PM00104 0.9 and oxaliplatin 8 mg/kg/day): 52.4%
- % Inhibition (Hs746T tumors; day 39, PM00104 0.9 and docetaxel 8 mg/kg/day): 19.7%
- % Inhibition (Hs746T tumors; day 39, PM00104 0.9 and docetaxel 16 mg/kg/day): 19.7%
- % Inhibition (Hs746T tumors; day 39, PM00104 0.9 and oxaliplatin 4 mg/kg/day): 19.7%
- % Inhibition (Hs746T tumors; day 39, PM00104 0.9 and oxaliplatin 8 mg/kg/day): 19.7%
